Test results as given in EPA's ToxValDB 9.5 (doi:10.2903/j.efsa.2014.3485).
≈ marks a conversion by molar mass, not a printed value.

How the values were obtained:
Colinus virginianus = conditions: oral
Rattus norvegicus = conditions: oral; for LD50: acute, mortality
Apis mellifera = conditions: acute, duration: 48 hours, mortality
Canidae = conditions: chronic; duration: 1 years; oral; Dog Other; histopathology: nonneoplastic
Daphnia magna = conditions: chronic/long-term; duration: 21 days; reproduction
Hypoaspis aculeifer = conditions: chronic/long-term
Mus musculus = conditions: developmental; development
Neomysis kadiakensis = conditions: chronic/long-term; duration: 28 days; reproduction
Typhlodromus pyri = assay: LR50; higher = less toxic; conditions: not reported; mortality
[1] = reproduction developmental, diet, reproduction

SMILES	LC50 (Colinus virginianus; acute, diet, mortality) [mg/kg-day]	LD50 (Rattus norvegicus) [mg/kg-day]	LD50 (Apis mellifera; dermal) [µg/piece]	LD50 (Apis mellifera; oral, unspecified) [µg/piece]	NOAEL (Canidae) [mg/kg-day]	LD50 (Colinus virginianus; acute, mortality) [mg/kg-day]	LOEL (Colinus virginianus; [1]) [mg/kg-day]	NOEL (Colinus virginianus; [1]) [mg/kg-day]	NOEC (Daphnia magna) [mg/L]	NOEC (Hypoaspis aculeifer) [mg/kg]	LOAEL (Mus musculus) [mg/kg-day]	NOEC (Neomysis kadiakensis) [mg/L]	LC50 (Oncorhynchus mykiss; acute, duration: 96 hours, mortality) [µg/mL]	NOEC (Oncorhynchus mykiss; chronic/long-term, duration: 83 days, growth) [mg/L]	NOEL (Rattus norvegicus; reproduction developmental, diet, body weight) [mg/kg-day]	LC50 (Tagia sp.; acute, duration: 14 days, mortality) [mg/kg]	NOEC (Tagia sp.; chronic/long-term, duration: 56 days, reproduction) [mg/kg]	LR50 (Typhlodromus pyri) [g/ha]
NC(Cc1ncn[nH]1)C(=O)O (stereo not given) [1,2,4-Triazole-3-alanine]	> 1370	> 5000	–	–	–	–	–	–	–	–	–	–	–	–	–	–	–	–
CC(C)(C)C(O)(CCc1ccc(Cl)cc1)Cn1cncn1 (stereo not given) [Tebuconazole]	> 703	1700	> 200	> 83	3	1990	12.4	5.8	0.01	50	10	0.035	4.4 (≈ 14.3 µM)	0.012	10	1380	10	58
